According to paper PMC4890880 (ACS infectious diseases, 2016):
Where two headings read alike, the source gives them in different places.

Experiments:
[1] = system: Plasmodium berghei (Pb-Luc) exoerythrocytic-stage parasites; assay: microbe, parasite or virus in culture; settings: for IC50: read-out: PbLuc IC50, dose response, 1/3 dilutions, max conc. 10 or 50 uM, unit inferred
HepG2-A16-CD81EGFP cells = assay: cells; settings: Homo sapiens; for IC50: HepG2, read-out: Tox IC50; for inhibition at 50 µM: HepG2, read-out: Tox max inhibition (%) @ 50 uM
[2] = read-out: Inhibition% @ 50 uM rep1
[3] = read-out: Inhibition% @ 50 uM rep2
[4] = HepG2, read-out: HepG2 Tox% @ 50 uM rep1
[5] = read-out: PbLuc max inhibition (%) @ 50 uM
[6] = HepG2, read-out: HepG2 Tox% @ 50 uM rep2

Structure (SMILES) | inhibition at 50 µM [1, 2] [%] | inhibition at 50 µM [1, 3] [%] | cytotoxicity at 50 µM (HepG2-A16-CD81EGFP cells; [4]) [%] | IC50 [1] [µM] | inhibition at 50 µM [1, 5] [%] | IC50 (HepG2-A16-CD81EGFP cells) [µM] | inhibition at 50 µM (HepG2-A16-CD81EGFP cells) [%] | cytotoxicity at 50 µM (HepG2-A16-CD81EGFP cells; [6]) [%]
O=C(NCCCN1CCC(N2CCCCC2)CC1)C1=Cc2cc(Br)ccc2OC1 [MMV019995] | 102 | 102 | 100 | – | – | – | – | –
Cc1cc(N(C)C)nc(Nc2ccc(NC(=O)Nc3ccccc3)cc2)n1 [MMV020243] | 96 | 99 | 96 | 1.45 | 100 | 15.7 | 100 | –
Cc1ccc(-c2nc3ccccc3o2)cc1NCc1cc(Cc2ccccc2)ccc1O [MMV020912] | 75 | 76 | 13 | – | – | – | – | –
COc1cc2c(cc1OC)C1=NNC(=O)C1=NC(C)(C)C2 [MMV084940] | 103 | 102 | 99 | 4.02 | 99 | 31.3 | 94 | 100
COc1ccccc1N=C1C(=O)c2ccccc2C(O)=C1N1CCCCC1 [MMV085203] | 103 | 105 | 94 | 0.564 | 100 | 3.13 | 96 | 97
Cc1ccc(C(=O)c2oc3ccc4c(C)cc(=O)oc4c3c2C)cc1 [MMV086103] | 103 | 103 | 40 | – | – | – | – | –
CC(C)(C)c1ccc(C(=O)Nc2nc3ccccc3s2)cc1 [MMV142383] | 103 | 105 | 89 | – | – | – | – | 96
COc1ccc2nc(C)cc(Nc3ccccc3O)c2c1 [MMV274073] | 100 | 100 | 59 | – | – | – | – | 88
CCn1nc(-c2ccc(C(=O)OC)cc2)nc2c(=O)n(C)c(=O)nc1-2 [MMV306025] | 104 | 105 | 99 | – | – | – | – | 101
CCOc1c(Cl)cc(CNCC(O)c2ccccc2)cc1OC (centres unmarked) [MMV396632] | 99 | 96 | 82 | – | – | – | – | 76
CCOc1cc(CNC(C)C(O)c2ccccc2)cc(Cl)c1OCC (centres unmarked) [MMV396633] | 101 | 102 | 98 | – | – | – | – | 99
Cc1sc(NC(=O)c2ccco2)c(C(c2cccnc2)N2CCC(Cc3ccccc3)CC2)c1C (centres unmarked) [MMV396663] | 103 | 103 | 82 | – | – | – | – | –
CCOC(=O)c1c(C)n(-c2ccccc2)c2ccc(OC(=O)c3cc(OC)c(OC)c(OC)c3)cc12 [MMV396664] | 100 | 101 | 61 | – | – | – | – | –
COc1cc(C(=O)Nc2nc3c(cc4c5c(cccc53)CC4)s2)cc(OC)c1OC [MMV396665] | 76 | 80 | 11 | – | – | – | – | –
O=C(NCC(c1ccsc1)N1CCCCCC1)c1ccc(C(F)(F)F)cc1 (centres unmarked) [MMV396672] | 104 | 104 | 98 | – | – | – | – | 99
O=C(CSc1nccn2nc(-c3ccccc3)cc12)Nc1cc(C(F)(F)F)ccc1Cl [MMV396678] | 68 | 82 | -13 | – | – | – | – | -3
C[n+]1c2ccccc2nc2ccc(NCCO)cc21 [MMV396693] | 102 | 104 | 81 | – | – | – | – | 93
CCN(CC)CCNc1ncnc2c1[nH]c1ccc(Cl)cc12 [MMV396703] | 103 | 106 | 95 | – | – | – | – | 98
CN1CCN(c2ncnc3c2[nH]c2ccc(Cl)cc23)CC1 [MMV396704] | 99 | 101 | 32 | – | – | – | – | –
COc1cccc(Cn2c(Oc3ccccc3)nc3c2c(=O)n(C)c(=O)n3C)c1 [MMV396705] | 99 | 99 | 47 | – | – | – | – | –
COc1ccc(CCN2C(=O)c3[nH]nc(-c4cc(Cl)c(C)cc4O)c3C2c2ccccc2F)cc1 (centres unmarked) [MMV396717] | 101 | 101 | 97 | – | – | – | – | –
